pKd: −log10 of the molar value.
Biological target: concanavalin A (ConA) (Canavalia ensiformis, UniProt P02866)
Experiment: isothermal titration calorimetry
Assay type: binding

Chain of concanavalin A (ConA) (P02866 164-281 limits assumed): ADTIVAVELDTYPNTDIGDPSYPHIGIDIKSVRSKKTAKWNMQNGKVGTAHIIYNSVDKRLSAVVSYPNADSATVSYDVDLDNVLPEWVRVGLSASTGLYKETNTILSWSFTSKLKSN
Chain of concanavalin A (ConA) (P02866 30-148 limits assumed): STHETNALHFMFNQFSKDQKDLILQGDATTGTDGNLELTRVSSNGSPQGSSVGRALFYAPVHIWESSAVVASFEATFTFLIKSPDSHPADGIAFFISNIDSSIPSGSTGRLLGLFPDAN

Compound | pKd
CCCO[C@@H]1O[C@H](CO[C@H]2O[C@H](CO)[C@@H](O)[C@H](O)[C@@H]2O)[C@@H](O)[C@H](O[C@H]2O[C@H](CO)[C@@H](O)[C@H](O)[C@@H]2O)[C@@H]1O [compound 12, n-Propyl 3,6-Di-O-(α-D-mannopyranosyl)-β-D-mannopyranoside] | 5.49
CO[C@H]1O[C@H](CO)[C@@H](O)[C@H](O)[C@@H]1O [methyl α-mannoside] | 5.33
